Tested on: pea plants cv. 'Carneval'
Assay: Growth chamber experiment 2, pea 'Carneval' sprayed with 4-ME-IAA: peduncle/pedicel growth and seed yield, with or without heat stress (Tables P3-P12)
Format: in vivo, Pisum sativum L.
Protocol: For growth chamber experiment, seeds of ‘Carneval’ were planted at an approximate depth of 2.5 cm in 3-L plastic pots (4 seeds per pot and thinned to 2 plants per pot after approximately 2 weeks) in 1:1 Sunshine #4 potting mix (Sun Gro Horticulture, Vancouver, Canada) and sand. The experiment was arranged in a completely randomized design and grown at the University of Alberta in a growth chamber set at 19° C./17° C. (day/night) with a 16/8-h photoperiod under cool-white fluorescent lights (54W/835/HO high fluorescent bulbs, Phillips, Holland; 350 μE m^2 s^−2). For the heat stress treatment, plants were placed in a separate growth chamber with a 16/8-h photoperiod under cool-white fluorescent lights (F54/15/835/HO high fluorescent bulbs, Phillips, Holland) for 4 days where the temperature was cycled over a 24 hr period as follows: 33° C. air temperature for 6 hours per day (between 11:00 and 17:00 hrs) for 4 days during the light cycle; the remainder of the light cycle was maintained at a 22° C. air temperature; the dark cycle was maintained at 19° C. After the 4 day heat treatment, the plants were returned to the same growth chamber they were originally grown in, where they were taken to maturity.
For experiment 2, aqueous 4-methyl-indole-3-acetic acid (4-ME-IAA) solutions at 1×10^−7, 1×10^−6, 1×10^−5, or 1×10^−4 M in 0.1% (v/v) Tween 80 or aqueous 0.1% (v/v) Tween 80 (control) were applied as a spray to the entire plant to cover when the first flowering node of the main stem was near or at anthesis. In addition to the application at the timing cited above, one application of 4-ME-IAA at 1×10^−6 M or 1×10^−5 M was made when the floral buds were tightly clustered inside the stipule leaves at the stem apex (floral buds not visible outside of stipule leaves; designated the ‘Early’ treatment). In the heat stress treatment, the hormone or control treatment application was completed 16 hrs prior to the initiation of the first heat-stress cycle. The length and diameter (measured mid-length) of the lower and upper peduncles and pedicels of the inflorescence with two pods (or the lower peduncle and pedicel if a single pod node) at the first, second, third and fourth flowering nodes of the main stem of pea plants were determined for hormone-treated and control plants. Standard error of the mean (SE) was calculated for the means of all data for a measure of statistical significance in comparing treatment means.

[1] = 1×10^−4 M, applied near or at anthesis, no heat stress
[2] = 1×10^−4 M, first flowering node, heat stress (33° C. 6 h/day, 4 days)
[3] = 1×10^−4 M, first flowering node, no heat stress
[4] = 1×10^−4 M, fourth flowering node, heat stress (33° C. 6 h/day, 4 days)
[5] = 1×10^−4 M, fourth flowering node, no heat stress
[6] = 1×10^−4 M, heat stress (33° C. 6 h/day, 4 days)
[7] = 1×10^−4 M, second flowering node, heat stress (33° C. 6 h/day, 4 days)
[8] = 1×10^−4 M, second flowering node, no heat stress
[9] = 1×10^−4 M, third flowering node, heat stress (33° C. 6 h/day, 4 days)
[10] = 1×10^−4 M, third flowering node, no heat stress
[11] = 1×10^−5 M, applied near or at anthesis, no heat stress
[12] = 1×10^−5 M, first flowering node, heat stress (33° C. 6 h/day, 4 days)
[13] = 1×10^−5 M, first flowering node, no heat stress
[14] = 1×10^−5 M, fourth flowering node, heat stress (33° C. 6 h/day, 4 days)
[15] = 1×10^−5 M, fourth flowering node, no heat stress
[16] = 1×10^−5 M, heat stress (33° C. 6 h/day, 4 days)
[17] = 1×10^−5 M, second flowering node, heat stress (33° C. 6 h/day, 4 days)
[18] = 1×10^−5 M, second flowering node, no heat stress
[19] = 1×10^−5 M, third flowering node, heat stress (33° C. 6 h/day, 4 days)
[20] = 1×10^−5 M, third flowering node, no heat stress
[21] = 1×10^−6 M, applied near or at anthesis, no heat stress
[22] = 1×10^−6 M, first flowering node, heat stress (33° C. 6 h/day, 4 days)

## Cc1cccc2[nH]cc(CC(=O)O)c12 [4-ME-IAA, 4-methyl-indole-3-acetic acid]
[1]
  Ratio of seed number on main stem to lateral stems: 4.6 ± 1.1
  Seed number per plant: 56.7 ± 3.6
  Seed weight per plant: 14.0 ± 1.0 g
  Weight per seed: 0.247 ± 0.006 g
  increase in seed yield (seed weight per plant) vs control: 61%
[2]
  Lower Pedicel Length: 7.63 ± 0.46 mm
  Lower Pedicel diameter: 1.58 ± 0.09 mm
  Lower Peduncle Length: 52.22 ± 4.26 mm
  Lower Peduncle diameter: 1.71 ± 0.06 mm
  Upper Pedicel Length: 7.00 ± 0.45 mm
  Upper Pedicel diameter: 1.6 ± 0.07 mm
  Upper Peduncle Length: 17.00 ± 1.37 mm
  Upper Peduncle diameter: 1.44 ± 0.07 mm
[3]
  Lower Pedicel Length: 8.50 ± 0.37 mm
  Lower Pedicel diameter: 1.73 ± 0.05 mm
  Lower Peduncle Length: 69.70 ± 4.21 mm
  Lower Peduncle diameter: 1.73 ± 0.07 mm
  Upper Pedicel Length: 8.10 ± 0.43 mm
  Upper Pedicel diameter: 1.54 ± 0.05 mm
  Upper Peduncle Length: 15.20 ± 1.36 mm
  Upper Peduncle diameter: 1.44 ± 0.03 mm
[4]
  Lower Pedicel Length: 7.00 ± 0.41 mm
  Lower Pedicel diameter: 1.45 ± 0.11 mm
  Lower Peduncle Length: 25.50 ± 3.97 mm
  Lower Peduncle diameter: 1.38 ± 0.10 mm
  Upper Pedicel Length: 7.00 ± 0.0 mm
  Upper Pedicel diameter: 1.33 ± 0.15 mm
  Upper Peduncle Length: 14.50 ± 0.50 mm
  Upper Peduncle diameter: 1.17 ± 0.02 mm
[5]
  Lower Pedicel Length: 8.44 ± 0.23 mm
  Lower Pedicel diameter: 1.42 ± 0.05 mm
  Lower Peduncle Length: 41.00 ± 3.24 mm
  Lower Peduncle diameter: 1.36 ± 0.06 mm
  Upper Pedicel Length: 8.22 ± 0.14 mm
  Upper Pedicel diameter: 1.36 ± 0.06 mm
  Upper Peduncle Length: 16.67 ± 0.39 mm
  Upper Peduncle diameter: 1.17 ± 0.04 mm
[6]
  Ratio of seed number on main stem to lateral stems: 2.1 ± 0.4
  Seed number plant: 55.6 ± 6.2
  Seed weight per per plant: 14.5 ± 1.7 g
  Weight per seed: 0.261 ± 0.009 g
[7]
  Lower Pedicel Length: 7.56 ± 0.38 mm
  Lower Pedicel diameter: 1.56 ± 0.06 mm
  Lower Peduncle Length: 40.33 ± 4.51 mm
  Lower Peduncle diameter: 1.63 ± 0.04 mm
  Upper Pedicel Length: 7.25 ± 0.25 mm
  Upper Pedicel diameter: 1.54 ± 0.05 mm
  Upper Peduncle Length: 16.88 ± 1.52 mm
  Upper Peduncle diameter: 1.29 ± 0.04 mm
[8]
  Lower Pedicel Length: 8.30 ± 0.47 mm
  Lower Pedicel diameter: 1.65 ± 0.05 mm
  Lower Peduncle Length: 55.60 ± 4.08 mm
  Lower Peduncle diameter: 1.67 ± 0.06 mm
  Upper Pedicel Length: 8.3 ± 0.47 mm
  Upper Pedicel diameter: 1.55 ± 0.05 mm
  Upper Peduncle Length: 18.40 ± 0.72 mm
  Upper Peduncle diameter: 1.38 ± 0.05 mm
[9]
  Lower Pedicel Length: 7.33 ± 0.29 mm
  Lower Pedicel diameter: 1.55 ± 0.08 mm
  Lower Peduncle Length: 28.22 ± 3.07 mm
  Lower Peduncle diameter: 1.53 ± 0.06 mm
  Upper Pedicel Length: 7.50 ± 0.29 mm
  Upper Pedicel diameter: 1.49 ± 0.05 mm
  Upper Peduncle Length: 14.00 ± 1.00 mm
  Upper Peduncle diameter: 1.29 ± 0.03 mm
[10]
  Lower Pedicel Length: 8.20 ± 0.33 mm
  Lower Pedicel diameter: 1.49 ± 0.06 mm
  Lower Peduncle Length: 49.90 ± 4.2 mm
  Lower Peduncle diameter: 1.53 ± 0.05 mm
  Upper Pedicel Length: 8.10 ± 0.28 mm
  Upper Pedicel diameter: 1.40 ± 0.06 mm
  Upper Peduncle Length: 19.10 ± 0.75 mm
  Upper Peduncle diameter: 1.21 ± 0.04 mm
[11]
  Ratio of seed number on main stem to lateral stems: 3.3 ± 0.6
  Seed number per plant: 60.3 ± 3.2
  Seed weight per plant: 14.0 ± 0.9 g
  Weight per seed: 0.230 ± 0.004 g
  increase in seed yield (seed weight per plant) vs control: 61%
[12]
  Lower Pedicel Length: 9.11 ± 0.26 mm
  Lower Pedicel diameter: 1.59 ± 0.06 mm
  Lower Peduncle Length: 61.33 ± 4.13 mm
  Lower Peduncle diameter: 1.60 ± 0.08 mm
  Upper Pedicel Length: 8.83 ± 0.17 mm
  Upper Pedicel diameter: 1.56 ± 0.08 mm
  Upper Peduncle Length: 16.00 ± 1.46 mm
  Upper Peduncle diameter: 1.33 ± 0.04 mm
[13]
  Lower Pedicel Length: 8.70 ± 0.45 mm
  Lower Pedicel diameter: 1.58 ± 0.04 mm
  Lower Peduncle Length: 63.10 ± 4.95 mm
  Lower Peduncle diameter: 1.53 ± 0.05 mm
  Upper Pedicel Length: 8.70 ± 0.37 mm
  Upper Pedicel diameter: 1.49 ± 0.03 mm
  Upper Peduncle Length: 19.90 ± 1.12 mm
  Upper Peduncle diameter: 1.31 ± 0.03 mm
[14]
  Lower Pedicel Length: 7.17 ± 0.48 mm
  Lower Pedicel diameter: 1.41 ± 0.07 mm
  Lower Peduncle Length: 29.50 ± 2.63 mm
  Lower Peduncle diameter: 1.39 ± 0.02 mm
[15]
  Lower Pedicel Length: 9.00 ± 0.44 mm
  Lower Pedicel diameter: 1.22 ± 0.09 mm
  Lower Peduncle Length: 40.22 ± 3.64 mm
  Lower Peduncle diameter: 1.41 ± 0.05 mm
  Upper Pedicel Length: 8.88 ± 0.44 mm
  Upper Pedicel diameter: 1.11 ± 0.10 mm
  Upper Peduncle Length: 18.13 ± 0.88 mm
  Upper Peduncle diameter: 1.03 ± 0.08 mm
[16]
  Ratio of seed number on main stem to lateral stems: 1.1 ± 0.1
  Seed number plant: 50.6 ± 5.0
  Seed weight per per plant: 13.7 ± 1.2 g
  Weight per seed: 0.274 ± 0.005 g
[17]
  Lower Pedicel Length: 8.11 ± 0.11 mm
  Lower Pedicel diameter: 1.68 ± 0.07 mm
  Lower Peduncle Length: 47.11 ± 5.35 mm
  Lower Peduncle diameter: 1.58 ± 0.05 mm
  Upper Pedicel Length: 8.00 ± 0.29 mm
  Upper Pedicel diameter: 1.55 ± 0.06 mm
  Upper Peduncle Length: 16.33 ± 0.82 mm
  Upper Peduncle diameter: 1.32 ± 0.04 mm
[18]
  Lower Pedicel Length: 8.80 ± 0.33 mm
  Lower Pedicel diameter: 1.50 ± 0.04 mm
  Lower Peduncle Length: 53.50 ± 5.01 mm
  Lower Peduncle diameter: 1.45 ± 0.04 mm
  Upper Pedicel Length: 8.60 ± 0.37 mm
  Upper Pedicel diameter: 1.39 ± 0.04 mm
  Upper Peduncle Length: 18.10 ± 0.74 mm
  Upper Peduncle diameter: 1.16 ± 0.03 mm
[19]
  Lower Pedicel Length: 7.67 ± 0.37 mm
  Lower Pedicel diameter: 1.58 ± 0.06 mm
  Lower Peduncle Length: 39.22 ± 3.35 mm
  Lower Peduncle diameter: 1.52 ± 0.05 mm
  Upper Pedicel Length: 7.00 ± 0.32 mm
  Upper Pedicel diameter: 1.56 ± 0.08 mm
  Upper Peduncle Length: 16.20 ± 1.74 mm
  Upper Peduncle diameter: 1.38 ± 0.09 mm
[20]
  Lower Pedicel Length: 8.56 ± 0.41 mm
  Lower Pedicel diameter: 1.35 ± 0.04 mm
  Lower Peduncle Length: 47.11 ± 4.73 mm
  Lower Peduncle diameter: 1.53 ± 0.03 mm
  Upper Pedicel Length: 8.67 ± 0.29 mm
  Upper Pedicel diameter: 1.25 ± 0.05 mm
  Upper Peduncle Length: 20.44 ± 1.00 mm
  Upper Peduncle diameter: 1.13 ± 0.05 mm
[21]
  Ratio of seed number on main stem to lateral stems: 2.9 ± 0.6
  Seed number per plant: 63.3 ± 4.6
  Seed weight per plant: 14.9 ± 0.9 g
  Weight per seed: 0.238 ± 0.006 g
  increase in seed yield (seed weight per plant) vs control: 71%
[22]
  Lower Pedicel Length: 8.80 ± 0.29 mm
  Lower Pedicel diameter: 1.47 ± 0.05 mm
  Lower Peduncle Length: 60.40 ± 5.23 mm

— patent US20140106967A1, “AUXIN PLANT GROWTH REGULATORS” (The Governors of The University of Alberta, priority 2011, published 2014)
